# Reference: patent US20100316579A1, “NOVEL USE OF ALKYL PHOSPHATE ESTERS” (Glaxo Group Limited, priority 2006, published 2010)
# Assays:
# [1] = Enamel solubility reduction (FDA ESR model #33 modified), citric acid challenge; details: for Enamel Solubility Reduction (%): 1.0% w/w citric acid monohydrate pH 3.75, alkyl phosphates 0.50% w/w aqueous, pH 7, normalised to water negative control
# Excerpt: (§1) FDA caries monograph enamel solubility reduction (ESR) model #33 is designed to evaluate in vitro the utility of fluoride toothpastes to protect enamel against a bacterial (lactic) acid challenge. In brief, enamel specimens are placed in a lactic acid challenge (pH 4.5) and the solubility determined by spectrophotometric analysis of released phosphate. Specimens are then placed in the relevant treatment solution derived from the supernatant of a 1:3 slurry of the toothpaste in deionised water. After 5 minutes the specimens are removed, rinsed, and placed in a fresh lactic acid challenge. The enamel solubility is determined once again, and the ESR value calculated as a percentage reduction relative to the baseline solubility.
# The methodology described above was modified in order to evaluate the ability of putative anti-erosion actives to confer protection against a more aggressive dietary acid challenge. […] The alkyl phosphates were tested as 0.50% w/w aqueous solutions at pH 7. Fluoride was included as a positive control, and Crest Cavity Protection was also run as an additional control standard.
# [2] = Inhibition of citric acid-mediated enamel surface softening (Vickers microhardness/microindentation); design: species or system human; details: Example 1; for enamel surface microhardness (baseline = 100): ± = standard deviation; for levels of protection compared among SDP, PDEP and fluoride positive control: at 10 and 20 minutes; for levels of protection compared among SDP, PDEP and fluoride positive control / protection versus the fluoride positive control: in words; for protection versus the fluoride positive control: at 30 minutes
# Procedure: The first stage of dental erosion and acid wear involves demineralisation of the hard tissue surface and consequent surface softening. The present study employed a Duramin Microhardness Tester to assess the protective effect of SDP and PDEP against an erosive challenge based on citric acid.
# Sound human enamel specimens were polished with 2400 grit abrasive and subsequently immersed in an aqueous solution of the specified treatment at pH 7 for 2 minutes under ambient conditions, with agitation. After rinsing with deionised water, the enamel specimens were exposed to an erosive challenge comprising an aqueous solution of 0.30% w/w citric acid monohydrate, pH 3.6. The extent of acid damage was assessed by monitoring the decrease in enamel surface hardness as a function of acid exposure time. The microhardness value for each specimen at a given time point was based on the mean of 6 indents. Each treatment leg employed 3 enamel specimens, which were randomised according to baseline microhardness. A 300 ppm fluoride ion solution (from NaF) was employed as the positive control; deionised water was employed as the negative control. The protective effects of combination treatment solutions i.e. 0.50% alkyl phosphate plus 300 ppm fluoride, were also investigated.
# The actives were tested as aqueous solutions at 0.50% w/w and pH 7.
# [3] = Enamel solubility reduction (FDA ESR model #33 modified), phosphoric acid challenge
# Excerpt: as §1
# FDA ESR Model #33 was modified by replacing lactic acid with phosphoric acid, a dietary acid most commonly associated with cola drinks. Determination of enamel solubility in this study was based on analysis of the released calcium to prevent interference from the acid challenge.
# [4] = 10 mins acid (0.30% w/w citric acid monohydrate, pH 3.6) after 2 min treatment at pH 7
# [5] = 20 mins acid (0.30% w/w citric acid monohydrate, pH 3.6) after 2 min treatment at pH 7
# [6] = 30 mins acid (0.30% w/w citric acid monohydrate, pH 3.6) after 2 min treatment at pH 7
compound,measurement,setting,value
potassium dodecyl ether (1EO) phosphate [PDEP],Enamel Solubility Reduction (%),[1],17.77%
same,statistical comparison with the 300 ppm fluoride control,"[1]; citric acid ESR, in words",statistically inferior
same,enamel surface microhardness (baseline = 100),[2]; [4],92.5 ± 1.8
same,enamel surface microhardness (baseline = 100),[2]; [5],82.5 ± 2.7
same,enamel surface microhardness (baseline = 100),[2]; [6],78 ± 2.8
same,"levels of protection compared among SDP, PDEP and fluoride positive control",[2],comparable
same,protection versus the fluoride positive control,[2],statistically superior
"CCCCCCCCCCCCOP(=O)([O-])[O-].[Na+].[Na+] [SDP, sodium dodecyl phosphate]",Enamel Solubility Reduction (%),[1],36.76%
same,directional comparison with fluoride,"[1]; citric acid ESR, in words",directionally superior
same,statistical comparison with the 300 ppm fluoride control,"[1]; citric acid ESR, in words",not statistically different
same,enamel surface microhardness (baseline = 100),[2]; [4],94 ± 1.7
same,enamel surface microhardness (baseline = 100),[2]; [5],84 ± 4.0
same,enamel surface microhardness (baseline = 100),[2]; [6],80 ± 2.0
same,"levels of protection compared among SDP, PDEP and fluoride positive control",[2],comparable
same,protection versus the fluoride positive control,[2],statistically superior
same,protection against the phosphoric acid challenge compared to the negative water control,[3]; in words,statistically significant protection
same,acid protection versus the 300 ppm fluoride,"[3]; phosphoric acid ESR, in words",statistically superior
same,Enamel Solubility Reduction (%),"[3]; phosphoric acid challenge, solubility from released calcium",16.02%
